The values below come from patent US11667651B2, “Aminopyridine derivatives as phosphatidylinositol phosphate kinase inhibitors” (HiberCell, Inc., priority 2017, dated 2023).

Where only a bound is given, the exact number is not on record here.

The target of the assay is T1, PIP4K2A (Homo sapiens, UniProt P48426).
T1 sequence (P48426 1-406): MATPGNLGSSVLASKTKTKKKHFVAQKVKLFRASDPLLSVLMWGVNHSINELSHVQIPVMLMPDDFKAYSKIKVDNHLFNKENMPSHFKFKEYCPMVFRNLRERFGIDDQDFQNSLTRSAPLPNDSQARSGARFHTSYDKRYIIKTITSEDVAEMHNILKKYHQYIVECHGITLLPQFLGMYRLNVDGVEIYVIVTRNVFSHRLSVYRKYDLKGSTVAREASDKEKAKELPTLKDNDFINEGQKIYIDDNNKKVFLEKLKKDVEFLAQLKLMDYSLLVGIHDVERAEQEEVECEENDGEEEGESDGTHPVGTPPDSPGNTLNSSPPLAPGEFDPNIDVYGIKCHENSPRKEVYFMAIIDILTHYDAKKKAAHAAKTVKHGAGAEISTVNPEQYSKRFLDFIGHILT
Briefly: Kinase Assay PIP4K2 A (Table 2). It counts as biochemical. Details: 4 nM PIP4K2A (full length protein, SignalChem); purchased SignalChem. The following applies: compounds listed under IC50 bins. As for the experimental part:
Dilution series of the compounds were prepared in DMSO at 100 times the final assay concentration (n1=n0/3 in 10 points). The compounds were further diluted to three times the assay concentration in assay buffer (20 mM MOPS pH 7.2, 25 mM magnesium chloride, 0.005% Tween 20). 6 μL of the diluted compounds were added to a 384 well assay plate followed by 9 μL of a mix consisting of 4 nM PIP4K2A (full length protein, SignalChem) and 100 μM PI(5)P diC8 (Tebu-Bio). Enzyme and compounds were pre-incubated at room temperature for 15 minutes.
Then 3 μL of a solution containing 60 μM ATP (Promega) in assay buffer was added to the wells containing compound and enzyme and mixing was performed by pipetting several times. The reaction was incubated at room temperature for 1 h. Then 18 μL of ADP-Glo™ Reagent (Promega) was added to stop the kinase reaction and deplete the unconsumed ATP, mixing was performed by pipetting several times. The plate was incubated at room temperature for 40 minutes before addition of 36 μL of Kinase Detection Reagent (Promega) to convert ADP to ATP and introduce luciferase and luciferin to detect ATP. The reaction was incubated at room temperature for 40 minutes before the luminescence was measured in a in a Victor 3V 1420 multilabel counter (Perkin Elmer).
Percent inhibition of the compounds as compared to dimethyl sulfoxide treated control samples was calculated. Compound concentration versus percent inhibition were fitted to generate IC50 values.
For the compound `CN(C)C(=O)c1ccc(-c2ccc(Nc3cccnc3)nc2)cc1` [Example 1, N,N-dimethyl-4-(6-(pyridin-3-ylamino)pyridin-3-yl)benzamide], the IC50 (commonly the concentration needed to halve the response being measured) is 100 to 1000 nM.
`Cc1cc(C(=O)N(C)C)ccc1-c1ccc(Nc2cccnc2)nc1` [Example 2, N,N,3-trimethyl-4-(6-(pyridin-3-ylamino)pyridin-3-yl)benzamide] showed an IC50 of over 1000 nM.
The result for `CN(C)C(=O)c1ccc(-c2ccc(Nc3cccnc3)nc2)cn1` [Example 3, N,N-dimethyl-6′-(pyridin-3-ylamino)-[3,3′-bipyridine]-6-carboxamide] reads over 1000 nM; that for `CN(C)C(=O)C#Cc1ccc(Nc2cccnc2)nc1` [Example 4, N,N-dimethyl-3-(6-(pyridin-3-ylamino)pyridin-3-yl)propiolamide], over 1000 nM.
The result for `CN(C)C(=O)c1ccc(-c2ccc(Nc3cccnc3)nc2)s1` [Example 5, N,N-dimethyl-5-(6-(pyridin-3-ylamino)pyridin-3-yl)thiophene-2-carboxamide] reads over 1000 nM.
The result for `CN(C)C(=O)C1CC=C(c2ccc(Nc3cccnc3)nc2)CC1` (stereo not shown) [Example 6, N,N-dimethyl-4-(6-(pyridin-3-ylamino)pyridin-3-yl)cyclohex-3-ene-1-carboxamide] reads over 1000 nM.
For the compound `CN(C)C(=O)[C@H]1CC[C@H](c2ccc(Nc3cccnc3)nc2)CC1` [Example 7, (r,4r)-N,N-dimethyl-4-(6-(pyridin-3-ylamino)pyridin-3-yl)cyclohexane-1-carboxamide], the IC50 was over 1000 nM.
Compound `CN(C)C(=O)[C@H]1CC[C@@H](c2ccc(Nc3cccnc3)nc2)CC1` [Example 8, (1s,4s)-N,N-dimethyl-4-(6-(pyridin-3-ylamino)pyridin-3-yl)cyclohexane-1-carboxamide] showed a half-maximal inhibitory concentration (IC50) of over 1000 nM.
`CN(C)C(=O)c1ccc(-c2ccc(Nc3cccnc3)nc2)nc1` [Example 9, N,N-dimethyl-6′-(pyridin-3-ylamino)-[2,3′-bipyridine]-5-carboxamide]: the IC50 was over 1000 nM.
The result for `Cc1cc(-c2ccc(Nc3cccnc3)nc2)ccc1C(=O)N(C)C` [Example 10, N,N,2-trimethyl-4-(6-(pyridin-3-ylamino)pyridin-3-yl)benzamide] reads over 1000 nM; that for `O=C(c1ccc(-c2ccc(Nc3cccnc3)nc2)cc1)N1CCC1` [Example 11, azetidin-1-yl(4-(6-(pyridin-3-ylamino)pyridin-3-yl)phenyl)methanone], 10 to 100 nM; that for `CN(C)C(=O)c1ccc(-c2ccc(Nc3cncc(N4CCCC4=O)c3)nc2)cc1F` [Example 12, 2-fluoro-N,N-dimethyl-4-(6-((5-(2-oxopyrrolidin-1-yl)pyridin-3-yl)amino)pyridin-3-yl)benzamide], 10 to 100 nM.
As for `CN(C)C(=O)c1ccc(-c2ccc(Nc3cncc(N4CCCC4=O)c3)nc2)c(F)c1` [Example 13, 3-fluoro-N,N-dimethyl-4-(6-((5-(2-oxopyrrolidin-1-yl)pyridin-3-yl)amino)pyridin-3-yl)benzamide], the figure is 10 to 100 nM; as for `CN(C)C(=O)c1cc(F)c(-c2ccc(Nc3cncc(N4CCCC4=O)c3)nc2)cc1F` [Example 14, 2,5-difluoro-N,N-dimethyl-4-(6-((5-(2-oxopyrrolidin-1-yl)pyridin-3-yl)amino)pyridin-3-yl)benzamide], 100 to 1000 nM.
The compound `Cc1cc(Nc2cccnc2)ncc1-c1ccc(C(=O)N(C)C)cc1` [Example 16, N,N-dimethyl-4-(4-methyl-6-(pyridin-3-ylamino)pyridin-3-yl)benzamide] came in with an IC50 of 100 to 1000 nM.
On to `CCc1cc(Nc2cccnc2)ncc1-c1ccc(C(=O)N(C)C)cc1` [Example 17, 4-(4-ethyl-6-(pyridin-3-ylamino)pyridin-3-yl)-N,N-dimethylbenzamide], for which the IC50 was in the range of 100 to 1000 nM.
As for `CN(C)C(=O)c1ccc(-c2cnc(Nc3cccnc3)cn2)cc1` [Example 18, N,N-dimethyl-4-(5-(pyridin-3-ylamino)pyrazin-2-yl)benzamide], the figure is 100 to 1000 nM; as for `CN(C)C(=O)c1ccc(-c2cnc(Nc3cncc(N4CCCC4=O)c3)cn2)cc1` [Example 19, N,N-dimethyl-4-(5-((5-(2-oxopyrrolidin-1-yl)pyridin-3-yl)amino)pyrazin-2-yl)benzamide], 100 to 1000 nM; as for `CN(C)C(=O)c1ccc(-c2cnc(Nc3cncc(N4CCCC4=O)c3)cn2)cc1F` [Example 20, 2-fluoro-N,N-dimethyl-4-(5-((5-(2-oxopyrrolidin-1-yl)pyridin-3-yl)amino)pyrazin-2-yl)benzamide], 100 to 1000 nM.
As for `CN(C)C(=O)c1ccc(-c2cnc(Nc3cncc(N4CCCC4=O)c3)cn2)c(F)c1` [Example 21, 3-fluoro-N,N-dimethyl-4-(5-((5-(2-oxopyrrolidin-1-yl)pyridin-3-yl)amino)pyrazin-2-yl)benzamide], the figure is 100 to 1000 nM; as for `CN(C)C(=O)c1cc(F)c(-c2cnc(Nc3cncc(N4CCCC4=O)c3)cn2)cc1F` [Example 22, 2,5-difluoro-N,N-dimethyl-4-(5-((5-(2-oxopyrrolidin-1-yl)pyridin-3-yl)amino)pyrazin-2-yl)benzamide], over 1000 nM.
The result for `CN(C)C(=O)c1ccc(-c2cnc(Nc3cncc(N4CCN(Cc5ccccc5)C4=O)c3)cn2)cc1` [Example 23, 4-(5-((5-(3-benzyl-2-oxoimidazolidin-1-yl)pyridin-3-yl)amino)pyrazin-2-yl)-N,N-dimethylbenzamide] reads 1 to 10 nM; that for `CN(C)C(=O)c1ccc(-c2ccc(Nc3cncc(N(C)S(C)(=O)=O)c3)nc2)cc1` [Example 24, N,N-dimethyl-4-(6-((5-(N-methylmethylsulfonamido)pyridin-3-yl)amino)pyridin-3-yl)benzamide], 10 to 100 nM.
In the case of `CN(C)C(=O)c1ccc(-c2ccc(Nc3cncc(N(C)S(=O)(=O)C4CC4)c3)nc2)cc1` [Example 25, N,N-dimethyl-4-(6-((5-(N-methylcyclopropanesulfonamido)pyridin-3-yl)amino)pyridin-3-yl)benzamide], the IC50 lay within 10 to 100 nM.
As for `CC(C)S(=O)(=O)N(C)c1cncc(Nc2ccc(-c3ccc(C(=O)N(C)C)cc3)cn2)c1` [Example 26, N,N-dimethyl-4-(6-((5-(N-methylpropan-2-ylsulfonamido)pyridin-3-yl)amino)pyridin-3-yl)benzamide], the figure is 10 to 100 nM; as for `CC(C)N(c1cncc(Nc2ccc(-c3ccc(C(=O)N(C)C)cc3)cn2)c1)S(C)(=O)=O` [Example 27, 4-(6-((5-(N-isopropylmethylsulfonamido)pyridin-3-yl)amino)pyridin-3-yl)-N,N-dimethylbenzamide], 100 to 1000 nM; as for `CN(C)C(=O)c1ccc(-c2ccc(Nc3cncc(N(C4CC4)S(C)(=O)=O)c3)nc2)cc1` [Example 28, 4-(6-((5-(N-cyclopropylmethylsulfonamido)pyridin-3-yl)amino)pyridin-3-yl)-N,N-dimethylbenzamide], 10 to 100 nM.
As for `CN(C)C(=O)c1ccc(-c2ccc(Nc3cncc(C#N)c3)nc2)cc1` [Example 30, 4-(6-((5-cyanopyridin-3-yl)amino)pyridin-3-yl)-N,N-dimethylbenzamide], the figure is 100 to 1000 nM; as for `CC(=O)Nc1cncc(Nc2ccc(-c3ccc(C(=O)N(C)C)cc3)cn2)c1` [Example 31, 4-(6-((5-acetamidopyridin-3-yl)amino)pyridin-3-yl)-N,N-dimethylbenzamide], 10 to 100 nM.
The result for `CN(C)C(=O)c1ccc(-c2ccc(Nc3cncnc3)nc2)cc1` [Example 32, N,N-dimethyl-4-(6-(pyrimidin-5-ylamino)pyridin-3-yl)benzamide] reads 100 to 1000 nM; that for `Cc1ncc(Nc2ccc(-c3ccc(C(=O)N(C)C)cc3)cn2)cn1` [Example 33, N,N-dimethyl-4-(6-((2-methylpyrimidin-5-yl)amino)pyridin-3-yl)benzamide], over 1000 nM.
With `COc1ncc(Nc2ccc(-c3ccc(C(=O)N(C)C)cc3)cn2)cn1` [Example 34, 4-(6-((2-methoxypyrimidin-5-yl)amino)pyridin-3-yl)-N,N-dimethylbenzamide], the concentration for half-maximal inhibition (IC50) was 100 to 1000 nM.
As for `Cc1ncccc1Nc1ccc(-c2ccc(C(=O)N(C)C)cc2)cn1` [Example 35, N,N-dimethyl-4-(6-((2-methylpyridin-3-yl)amino)pyridin-3-yl)benzamide], the figure is over 1000 nM; as for `CN(C)C(=O)c1ccc(-c2ccc(Nc3cnccn3)nc2)cc1` [Example 36, N,N-dimethyl-4-(6-(pyrazin-2-ylamino)pyridin-3-yl)benzamide], over 1000 nM.
